Results: US4465687A, “Thienamycin derivatives as anti-inflammatory agents” (Merck & Co., Inc., priority 1982, dated 1984)

Molecular target: T1, Human Polymorphonuclear Leukocyte Elastase (Homo sapiens, UniProt P08246)
T1 construct: Crude extract of human polymorphonuclear leukocytes (PMN) containing elastase activity; endogenous in cells; host or cells: human polymorphonuclear leukocytes (crude extract)
T1 sequence (P08246 30-247 limits assumed): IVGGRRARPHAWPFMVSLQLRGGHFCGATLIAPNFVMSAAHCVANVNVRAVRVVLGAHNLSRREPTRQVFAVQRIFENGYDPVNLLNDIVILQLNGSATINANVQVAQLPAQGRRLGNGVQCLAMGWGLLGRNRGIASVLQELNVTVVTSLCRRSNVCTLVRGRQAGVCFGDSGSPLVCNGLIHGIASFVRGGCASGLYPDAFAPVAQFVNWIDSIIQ
Assay: Inhibition of human polymorphonuclear leukocyte elastase via hydrolysis of N-t-Boc-alanyl-alanyl-prolylalanine-p-nitroanilide
Type: biochemical
Settings: measured within 2 minutes, crude PMN extract; for inhibition at 1 µg/mL: Conc. of compound 1 μg/ml; for inhibition at 2 µg/mL: Conc. of compound 2 μg/ml; for inhibition at 5 µg/mL: Conc. of compound 5 μg/ml; for inhibition at 20 µg/mL: Conc. of compound 20 μg/ml; for inhibition at 50 µg/mL: Conc. of compound 50 μg/ml
Method: Protocol--Enzyme Assays for the Inhibition of Human Polymorphonuclear Leukocyte Elastase Via Hydrolysis of N-t-Boc-alanyl-alanyl-prolylalanine-p-nitroanilide
0.05M TES (N-tris[hydroxymethyl]methyl-2-amino-ethanesulfonic acid) Buffer, pH 7.5.
0.2 mM N-t-Boc-alanyl-alanyl-Prolyl-Alanine-p-nitroanilide (Boc-AAPAN).
To prepare substrate, the solid (m.w. 550) was first dissolved in 10.0 ml DMSO. Buffer at pH 7.5 was then added to a final volume of 100 ml.
Crude extract of human polymorphonuclear leukocytes (PMN) containing elastase activity.
Inhibitors (thienamycin esters) to be treated dissolved in DMSO just before use.
To 1.0 ml of 0.2 mM Boc-AAPAN in a cuvette, 0.01-0.1 ml of DMSO with or without inhibitor was added. After mixing, a measurement was taken at 410 mμ to detect any spontaneous hydrolysis due to presence of test compound. 0.05 Milliliters of PMN extract was then added and the ΔOD/min at 410 mμ was measured and recorded. Beckman model 35 spectrophotometer was used.
The elastase activity in the crude PMN extract may vary from one preparation to another. A control of each new batch is run, and the volume added in the assay procedure is adjusted according to activity.

Structure (SMILES)	inhibition at 1 µg/mL	inhibition at 2 µg/mL	inhibition at 5 µg/mL	inhibition at 20 µg/mL	inhibition at 50 µg/mL	inhibition at 10 µg/mL (Conc. of compound 10 μg/ml)	inhibition at 25 µg/mL (Conc. of compound 25 μg/ml)	inhibition at 0.5 µg/mL (Conc. of compound .5 μg/ml)
CC(O)[C@H]1C(=O)N2C(C(=O)OCc3ccccc3)=C(SCCN3C(=O)c4ccccc4C3=O)C[C@H]12 (stereo partly drawn) [phthaloyl / H / benzyl]	39%	56%	89%	100%	–	–	–	–
CC(O)[C@H]1C(=O)N2C(C(=O)OCc3ccc([N+](=O)[O-])cc3)=C(SCCNC(=O)Cc3ccccc3)C[C@H]12 (stereo partly drawn) [COCH2 C6 H5 / H / H / PNB]	47%	–	84%	95%	100%	–	–	–
CCCC(=O)NCCSC1=C(C(=O)OCc2ccc([N+](=O)[O-])cc2)N2C(=O)[C@H]([C@@H](C)OC(C)=O)[C@H]2C1 [COCH2 C2 H5 / H / Ac / PNB]	–	–	31%	69%	89%	–	–	–
CC(O[Si](C)(C)C)[C@H]1C(=O)N2C(C(=O)OCc3ccc([N+](=O)[O-])cc3)=C(SCCN3C(=O)c4ccccc4C3=O)C[C@H]12 (stereo partly drawn) [phthaloyl / TMS / PNB]	38%	83%	–	–	96%	95%	95%	–
CC(O)[C@H]1C(=O)N2C(C(=O)OCc3ccc([N+](=O)[O-])cc3)=C(SCCN3C(=O)c4ccccc4C3=O)C[C@H]12 (stereo partly drawn) [phthaloyl / H / PNB]	76%	86%	93%	100%	–	–	–	50%
